{"source": "patent US20230167073A1", "about": "(Teijin Pharma Limited, priority 2020, published 2023)"}
{"biological_target": "T1, Human TRPC6 (Homo sapiens, UniProt Q9Y210)", "T1 construct": "expressed in transfected cells", "T1 sequence (Q9Y210 1-931)": "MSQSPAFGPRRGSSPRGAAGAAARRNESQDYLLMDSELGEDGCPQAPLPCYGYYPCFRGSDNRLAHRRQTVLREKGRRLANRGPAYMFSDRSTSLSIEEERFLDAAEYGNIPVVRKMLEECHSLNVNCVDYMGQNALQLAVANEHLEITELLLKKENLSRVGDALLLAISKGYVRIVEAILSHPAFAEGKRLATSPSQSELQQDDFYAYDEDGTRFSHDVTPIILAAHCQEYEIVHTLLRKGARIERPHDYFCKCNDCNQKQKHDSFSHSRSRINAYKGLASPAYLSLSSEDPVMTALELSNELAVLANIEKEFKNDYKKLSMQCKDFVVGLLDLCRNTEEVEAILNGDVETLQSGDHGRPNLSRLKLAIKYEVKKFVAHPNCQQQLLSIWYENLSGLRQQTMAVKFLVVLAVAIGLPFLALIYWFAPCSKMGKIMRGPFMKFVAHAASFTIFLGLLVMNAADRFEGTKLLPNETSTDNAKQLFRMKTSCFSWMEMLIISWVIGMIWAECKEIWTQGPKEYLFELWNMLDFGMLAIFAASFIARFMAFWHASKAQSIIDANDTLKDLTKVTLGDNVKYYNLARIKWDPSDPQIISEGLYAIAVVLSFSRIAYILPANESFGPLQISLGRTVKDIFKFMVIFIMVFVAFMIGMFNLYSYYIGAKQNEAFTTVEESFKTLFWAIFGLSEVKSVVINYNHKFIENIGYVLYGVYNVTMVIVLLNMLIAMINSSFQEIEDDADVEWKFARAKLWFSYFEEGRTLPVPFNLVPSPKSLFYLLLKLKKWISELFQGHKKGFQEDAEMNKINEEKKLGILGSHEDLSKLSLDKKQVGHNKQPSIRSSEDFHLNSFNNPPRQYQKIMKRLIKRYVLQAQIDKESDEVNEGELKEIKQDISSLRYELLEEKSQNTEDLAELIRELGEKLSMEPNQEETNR", "test": "Evaluation of TRPC6 channel inhibitory activity (1), FLIPR Calcium 5 Assay Kit, OAG stimulation (Compound Nos. 1-1293)", "assay_type": "cell-based", "details": "Human TRPC6 stably-expressing cells, OAG 30 μM, FLIPR Calcium 5 Assay Kit; read-out: Inhibitory activity (pIC50 class) (converted)", "in_short": "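Stable human TRPC6 line; fluorescent Ca2+ dye loading, then 20 min compound exposure before 30 μM OAG trigger. Peak-minus-baseline signal converted to % inhibition against untreated and unstimulated wells; potency given as pIC50 band.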", "units": {"IC50": "µM"}}
{"smiles": "CC(C)c1cc(Oc2cc(C#N)ccc2-c2ncc(CN)cn2)n(C)n1", "note": "[compound 364, 4-[5-(aminomethyl)pyrimidin-2-yl]-3-(2-methyl-5-propan-2-ylpyrazol-3-yl)oxybenzonitrile]", "IC50": "< 0.01"}
{"smiles": "Cn1nc(-c2ccccc2)cc1Oc1cc(C#N)ccc1-c1ccc([C@@H](O)CN)cn1", "note": "[compound 365, 4-[5-[(1R)-2-amino-1-hydroxyethyl]pyridin-2-yl]-3-(2-methyl-5-phenylpyrazol-3-yl)oxybenzonitrile]", "IC50": "< 0.01"}
{"smiles": "Cn1nc(-c2ccccc2)cc1Oc1cc(C#N)ccc1-c1ccc([C@H](O)CN)cn1", "note": "[compound 366, 4-[5-[(1S)-2-amino-1-hydroxyethyl]pyridin-2-yl]-3-(2-methyl-5-phenylpyrazol-3-yl)oxybenzonitrile]", "IC50": "< 0.01"}
{"smiles": "Cn1nc(C(C)(C)C)cc1Oc1cc(C#N)ccc1-c1ncc(CCN)cn1", "note": "[compound 367, 4-[5-(2-aminoethyl)pyrimidin-2-yl]-3-(5-tert-butyl-2-methylpyrazol-3-yl)oxybenzonitrile]", "IC50": "< 0.01"}
{"smiles": "CC(C)(C)n1nc(C2CC2)cc1Oc1cc(C#N)ccc1-c1ccc(C(O)CN)cn1", "note": "(stereo not shown) [compound 368, 4-[5-(2-amino-1-hydroxyethyl)pyridin-2-yl]-3-(2-tert-butyl-5-cyclopropylpyrazol-3-yl)oxybenzonitrile]", "IC50": "0.01 to 1"}
{"smiles": "CC(C)(C)n1nc(C2CC2)cc1Oc1cc(C#N)ccc1-c1ncc(CCN)cn1", "note": "[compound 369, 4-[5-(2-aminoethyl)pyrimidin-2-yl]-3-(2-tert-butyl-5-cyclopropylpyrazol-3-yl)oxybenzonitrile]", "IC50": "0.01 to 1"}
{"smiles": "N#Cc1ccc(-c2ccc(C(O)CN)cn2)c(Oc2cc(C3CC3)nn2CC(F)(F)F)c1", "note": "(stereo not shown) [compound 370, 4-[5-(2-amino-1-hydroxyethyl)pyridin-2-yl]-3-[5-cyclopropyl-2-(2,2,2-trifluoroethyl)pyrazol-3-yl]oxybenzonitrile]", "IC50": "< 0.01"}
{"smiles": "Cc1cc(Oc2cc(C#N)ccc2-c2ncc(CCN)cn2)cc(-c2ccccn2)n1", "note": "[compound 371, 4-[5-(2-aminoethyl)pyrimidin-2-yl]-3-(2-methyl-6-pyridin-2-ylpyridin-4-yl)oxybenzonitrile]", "IC50": "< 0.01"}
{"smiles": "Cn1nc(C2CC2)cc1Oc1cc(C#N)ccc1-c1ncc([C@@H](O)CN)cn1", "note": "[compound 372, 4-[5-[(1R)-2-amino-1-hydroxyethyl]pyrimidin-2-yl]-3-(5-cyclopropyl-2-methylpyrazol-3-yl)oxybenzonitrile]", "IC50": "< 0.01"}
{"smiles": "Cn1nc(C2CC2)cc1Oc1cc(C#N)ccc1-c1ncc([C@H](O)CN)cn1", "note": "[compound 373, 4-[5-[(1S)-2-amino-1-hydroxyethyl]pyrimidin-2-yl]-3-(5 cyclopropyl-2-methylpyrazol-3-yl)oxybenzonitrile]", "IC50": "< 0.01"}
{"smiles": "Cn1nc(C2CC2)cc1Oc1cc(C#N)ccc1-c1ccc([C@@H](O)CN)cn1", "note": "[compound 374, 4-[5-[(1R)-2-amino-1-hydroxyethyl]pyridin-2-yl]-3-(5-cyclopropyl-2-methylpyrazol-3-yl)oxybenzonitrile]", "IC50": "< 0.01"}
{"smiles": "Cn1nc(C2CC2)cc1Oc1cc(C#N)ccc1-c1ccc([C@H](O)CN)cn1", "note": "[compound 375, 4-[5-[(1S)-2-amino-1-hydroxyethyl]pyridin-2-yl]-3-(5-cyclopropyl-2-methylpyrazol-3-yl)oxybenzonitrile]", "IC50": "< 0.01"}
{"smiles": "Cn1nc(C(F)(F)C(F)(F)F)cc1Oc1cc(C#N)ccc1-c1ncc(CCN)cn1", "note": "[compound 376, 4-[5-(2-aminoethyl)pyrimidin-2-yl]-3-[2-methyl-5-(1,1,2,2,2-pentafluoroethyl)pyrazol-3-yl]oxybenzonitrile]", "IC50": "< 0.01"}
{"smiles": "Cn1nc(-c2ccc(Cl)cc2)cc1Oc1cc(C#N)ccc1-c1ccc([C@@H](O)CN)cn1", "note": "[compound 377, 4-[5-[(1R)-2-amino-1-hydroxyethyl]pyridin-2-yl]-3-[5-(4-chlorophenyl)-2-methylpyrazol-3-yl]oxybenzonitrile]", "IC50": "0.01 to 1"}
{"smiles": "Cc1ccccc1-c1cc(Oc2cc(C#N)ccc2-c2ccc([C@@H](O)CN)cn2)n(C)n1", "note": "[compound 378, 4-[5-[(1R)-2-amino-1-hydroxyethyl]pyridin-2-yl]-3-[2-methyl-5-(2-methylphenyl)pyrazol-3-yl]oxybenzonitrile]", "IC50": "< 0.01"}
{"smiles": "N#Cc1ccc(-c2ncc(CCN)cn2)c(Oc2cc(C3CC3)nn2CC(F)(F)F)c1", "note": "[compound 379, 4-[5-(2-aminoethyl)pyrimidin-2-yl]-3-[5-cyclopropyl-2-(2,2,2-trifluoroethyl)pyrazol-3-yl]oxybenzonitrile]", "IC50": "< 0.01"}
{"smiles": "CC(C)n1nc(C2CC2)cc1Oc1cc(C#N)ccc1-c1ncc(CCN)cn1", "note": "[compound 380, 4-[5-(2-aminoethyl)pyrimidin-2-yl]-3-(5-cyclopropyl-2-propan-2-ylpyrazol-3-yl)oxybenzonitrile]", "IC50": "0.01 to 1"}
{"smiles": "CC(C)n1nc(-c2ccccc2)cc1Oc1cc(C#N)ccc1-c1ncc(CCN)cn1", "note": "[compound 381, 4-[5-(2-aminoethyl)pyrimidin-2-yl]-3-(5-phenyl-2-propan-2-ylpyrazol-3-yl)oxybenzonitrile]", "IC50": "< 0.01"}
{"smiles": "CC(C)n1nc(C2CC2)cc1Oc1cc(C#N)ccc1-c1ccc([C@@H](O)CN)cn1", "note": "[compound 382, 4-[5-[(1R)-2-amino-1-hydroxyethyl]pyridin-2-yl]-3-(5-cyclopropyl-2-propan-2-ylpyrazol-3-yl)oxybenzonitrile]", "IC50": "< 0.01"}
{"smiles": "CC(C)n1nc(-c2ccccc2)cc1Oc1cc(C#N)ccc1-c1ccc([C@@H](O)CN)cn1", "note": "[compound 383, 4-[5-[(1R)-2-amino-1-hydroxyethyl]pyridin-2-yl]-3-(5-phenyl-2-propan-2-ylpyrazol-3-yl)oxybenzonitrile]", "IC50": "< 0.01"}
{"smiles": "Cn1nc(C(F)F)cc1Oc1cc(C#N)ccc1-c1ncc(CCN)cn1", "note": "[compound 384, 4-[5-(2-aminoethyl)pyrimidin-2-yl]-3-[5-(difluoromethyl)-2-methylpyrazol-3-yl]oxybenzonitrile]", "IC50": "< 0.01"}
{"smiles": "Cn1nc(C2CC2)cc1Oc1cc(C#N)ccc1-c1ncc(OCCN)cn1", "note": "[compound 385, 4-[5-(2-aminoethoxy)pyrimidin-2-yl]-3-(5-cyclopropyl-2-methylpyrazol-3-yl)oxybenzonitrile]", "IC50": "0.01 to 1"}
{"smiles": "CCc1cc(Oc2cc(C#N)ccc2-c2ncc(OCCN)cn2)n(C)n1", "note": "[compound 386, 4-[5-(2-aminoethoxy)pyrimidin-2-yl]-3-(5-ethyl-2-methylpyrazol-3-yl)oxybenzonitrile]", "IC50": "0.01 to 1"}
{"smiles": "Cc1cc(Oc2cc(C#N)ccc2-c2ncc(OCCN)cn2)cc(N2CCOCC2)n1", "note": "[compound 387, 4-[5-(2-aminoethoxy)pyrimidin-2-yl]-3-(2-methyl-6-morpholin-4-ylpyridin-4-yl)oxybenzonitrile]", "IC50": "0.01 to 1"}
{"smiles": "Cc1cc(Oc2cc(C#N)ccc2-c2cnc(CCN)cn2)cc(N2CCOCC2)n1", "note": "[compound 388, 4-[5-(2-aminoethyl)pyrazin-2-yl]-3-(2-methyl-6-morpholin-4-ylpyridin-4-yl)oxybenzonitrile]", "IC50": "< 0.01"}
{"smiles": "Cn1nc(C2CCOCC2)cc1Oc1cc(C#N)ccc1-c1cnc(CCN)cn1", "note": "[compound 389, 4-[5-(2-aminoethyl)pyrazin-2-yl]-3-[2-methyl-5-(oxan-4-yl)pyrazol-3-yl]oxybenzonitrile]", "IC50": "0.01 to 1"}
{"smiles": "Cn1nc(-c2nccs2)cc1Oc1cc(C#N)ccc1-c1ccc(CCN)cn1", "note": "[compound 390, 4-[5-(2-aminoethyl)pyridin-2-yl]-3-[2-methyl-5-(1,3-thiazol-2-yl)pyrazol-3-yl]oxybenzonitrile]", "IC50": "< 0.01"}
{"smiles": "Cn1nc(-c2nccs2)cc1Oc1cc(C#N)ccc1-c1ncc(CCN)cn1", "note": "[compound 391, 4-[5-(2-aminoethyl)pyrimidin-2-yl]-3-[2-methyl-5-(1,3-thiazol-2-yl)pyrazol-3-yl]oxybenzonitrile]", "IC50": "< 0.01"}
{"smiles": "Cn1nc(C2CCCC2)cc1Oc1cc(C#N)ccc1-c1ccc([C@H](O)CN)cn1", "note": "[compound 392, 4-[5-[(1S)-2-amino-1-hydroxyethyl]pyridin-2-yl]-3-(5-cyclopentyl-2-methylpyrazol-3-yl)oxybenzonitrile]", "IC50": "< 0.01"}
{"smiles": "Cn1nc(C2CCCC2)cc1Oc1cc(C#N)ccc1-c1ncc(CCN)cn1", "note": "[compound 393, 4-[5-(2-aminoethyl)pyrimidin-2-yl]-3-(5-cyclopentyl-2-methylpyrazol-3-yl)oxybenzonitrile]", "IC50": "< 0.01"}
{"smiles": "Cn1nc(-c2ccccn2)cc1Oc1cc(C#N)ccc1-c1ncc(CN)cn1", "note": "[compound 394, 4-[5-(aminomethyl)pyrimidin-2-yl]-3-(2-methyl-5-pyridin-2-ylpyrazol-3-yl)oxybenzonitrile]", "IC50": "< 0.01"}
